Blank lines part the entries; values can stand above or below the compound they belong to. Active and inactive are the calls of the source. No cut-off for these calls is given here.
Experiments:
[1] = test system: A-375; test: Cytotoxicity against human A375 cells after 72 hrs by MTS assay; conditions: A-375, 72 h
[2] = Half life in rat liver microsomes; type: ADME, Microsome
[3] = test system: COLO 205; test: Cytotoxicity against human COLO205 cells after 72 hrs by MTS assay; conditions: COLO 205, 72 h
[4] = molecular target: Dual specificity mitogen-activated protein kinase kinase 1 (Homo sapiens, UniProt Q02750); test: Inhibition of MEK1-mediated ERK1 phosphorylation using IPTTPITTYFFFK-5FAM-COOH as substrate by fluorescent polarization assay
[5] = Half life in human liver microsomes; type: ADME, Microsome
[6] = molecular target: RAC-gamma serine/threonine-protein kinase (Homo sapiens) (UniProt Q9Y243); test: Inhibition of AKT3 at 10 uM
[7] = molecular target: Angiopoietin-1 receptor (Homo sapiens) (UniProt Q02763); test: Inhibition of Tie2 at 10 uM
[8] = molecular target: Proto-oncogene tyrosine-protein kinase Src (Homo sapiens) (UniProt P12931); test: Inhibition of cSRC at 10 uM
[9] = Volume of distribution at steady state in rat at 1 mg/kg, iv and 5 mg/kg, po; type: ADME, organism-based; conditions: in vivo, read-out: Vdss
[10] = molecular target: Insulin receptor (Homo sapiens) (UniProt P06213); test: Inhibition of IR at 10 uM
[11] = molecular target: Platelet-derived growth factor receptor beta (Homo sapiens) (UniProt P09619); test: Inhibition of PDGFRbeta at 10 uM
[12] = molecular target: Tyrosine-protein kinase ABL1 (Homo sapiens) (UniProt P00519); test: Inhibition of ABL1 at 10 uM
[13] = molecular target: Serine/threonine-protein kinase PLK3 (Homo sapiens) (UniProt Q9H4B4); test: Inhibition of PLK3 at 10 uM
[14] = molecular target: T1, Tyrosine-protein kinase JAK3 (Homo sapiens) (UniProt P52333); test: Inhibition of JAK3 at 10 uM
T1 sequence (whole entry): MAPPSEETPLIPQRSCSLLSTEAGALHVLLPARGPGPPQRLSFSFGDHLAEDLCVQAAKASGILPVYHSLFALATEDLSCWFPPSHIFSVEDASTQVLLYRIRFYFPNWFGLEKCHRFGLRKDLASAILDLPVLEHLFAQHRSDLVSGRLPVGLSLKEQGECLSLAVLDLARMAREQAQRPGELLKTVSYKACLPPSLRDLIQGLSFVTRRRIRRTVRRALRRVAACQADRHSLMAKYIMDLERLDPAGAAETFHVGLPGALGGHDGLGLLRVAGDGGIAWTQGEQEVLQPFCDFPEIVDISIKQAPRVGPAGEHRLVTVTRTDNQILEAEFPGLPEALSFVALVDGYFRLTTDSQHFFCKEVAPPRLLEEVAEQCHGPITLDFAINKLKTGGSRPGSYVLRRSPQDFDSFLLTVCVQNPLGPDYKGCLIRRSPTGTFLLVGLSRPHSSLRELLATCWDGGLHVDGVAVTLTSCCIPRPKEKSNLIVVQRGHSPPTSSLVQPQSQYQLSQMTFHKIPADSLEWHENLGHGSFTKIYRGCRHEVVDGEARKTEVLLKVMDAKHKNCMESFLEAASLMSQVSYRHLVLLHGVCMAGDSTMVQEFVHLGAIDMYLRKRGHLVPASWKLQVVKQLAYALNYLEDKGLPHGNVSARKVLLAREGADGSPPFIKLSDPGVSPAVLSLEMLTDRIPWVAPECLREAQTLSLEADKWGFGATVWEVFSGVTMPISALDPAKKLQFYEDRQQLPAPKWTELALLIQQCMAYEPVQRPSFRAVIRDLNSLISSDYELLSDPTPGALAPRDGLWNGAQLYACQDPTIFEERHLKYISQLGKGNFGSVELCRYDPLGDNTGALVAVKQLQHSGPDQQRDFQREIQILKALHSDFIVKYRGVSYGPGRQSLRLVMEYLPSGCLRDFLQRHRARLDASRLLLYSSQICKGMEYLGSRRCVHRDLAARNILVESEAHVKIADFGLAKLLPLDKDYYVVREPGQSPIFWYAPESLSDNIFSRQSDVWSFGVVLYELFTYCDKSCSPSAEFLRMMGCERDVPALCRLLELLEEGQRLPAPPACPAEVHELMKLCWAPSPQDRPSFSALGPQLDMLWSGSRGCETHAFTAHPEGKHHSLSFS

[15] = test system: Rattus norvegicus; test: Dose normalized AUC in rat at 1 mg/kg, iv and 5 mg/kg, po; type: ADME, organism-based; conditions: in vivo
[16] = molecular target: Glycogen synthase kinase-3 beta (Homo sapiens) (UniProt P49841); test: Inhibition of GSK3beta at 10 uM
[17] = molecular target: Calcium/calmodulin-dependent protein kinase type 1D (Homo sapiens) (UniProt Q8IU85); test: Inhibition of CAMK1delta at 10 uM
[18] = molecular target: Epidermal growth factor receptor (Homo sapiens) (UniProt P00533); test: Inhibition of EGFR at 10 uM
[19] = Inhibition of cytochrome P450 at 10 uM; type: ADME
[20] = molecular target: Cyclin-dependent kinase 2/cyclin A (Homo sapiens) (UniProt P24941+P20248+P78396); test: Inhibition of CDK2/cyclin A at 10 uM; type: protein-complex assay
[21] = Clearance in rat at 1 mg/kg, iv and 5 mg/kg, po; type: ADME, organism-based; conditions: in vivo
[22] = molecular target: Mitogen-activated protein kinase 14 (Homo sapiens) (UniProt Q16539); test: Inhibition of p38alpha at 10 uM
[23] = molecular target: 3-phosphoinositide-dependent protein kinase 1 (Homo sapiens) (UniProt O15530); test: Inhibition of PDK1 at 10 uM
[24] = molecular target: Hepatocyte growth factor receptor (Homo sapiens) (UniProt P08581); test: Inhibition of cMET at 10 uM
[25] = molecular target: Tyrosine-protein kinase SYK (Homo sapiens) (UniProt P43405); test: Inhibition of Syk at 10 uM
[26] = molecular target: RAF proto-oncogene serine/threonine-protein kinase (Homo sapiens) (UniProt P04049); test: Inhibition of c-RAF at 10 uM
[27] = molecular target: Protein kinase C alpha type (Homo sapiens) (UniProt P17252); test: Inhibition of PKCalpha at 10 uM
[28] = Oral bioavailability in rat at 5 mg/kg; type: ADME, organism-based; conditions: in vivo

Chain of RAC-gamma serine/threonine-protein kinase (Homo sapiens) (Q9Y243 whole entry): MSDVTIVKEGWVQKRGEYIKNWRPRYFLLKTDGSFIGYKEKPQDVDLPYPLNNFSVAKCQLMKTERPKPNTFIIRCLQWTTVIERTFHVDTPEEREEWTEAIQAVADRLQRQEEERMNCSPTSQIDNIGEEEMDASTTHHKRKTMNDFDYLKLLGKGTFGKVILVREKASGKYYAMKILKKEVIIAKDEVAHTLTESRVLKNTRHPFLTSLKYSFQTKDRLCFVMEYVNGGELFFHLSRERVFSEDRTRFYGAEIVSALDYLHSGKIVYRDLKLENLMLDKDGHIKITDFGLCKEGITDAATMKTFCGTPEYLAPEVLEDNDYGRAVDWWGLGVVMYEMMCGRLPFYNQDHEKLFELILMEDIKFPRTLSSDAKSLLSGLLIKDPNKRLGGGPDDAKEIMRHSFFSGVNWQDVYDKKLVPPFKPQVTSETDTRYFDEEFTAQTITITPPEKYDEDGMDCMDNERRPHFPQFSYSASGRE
Chain of Mitogen-activated protein kinase 14 (Homo sapiens) (Q16539 whole entry): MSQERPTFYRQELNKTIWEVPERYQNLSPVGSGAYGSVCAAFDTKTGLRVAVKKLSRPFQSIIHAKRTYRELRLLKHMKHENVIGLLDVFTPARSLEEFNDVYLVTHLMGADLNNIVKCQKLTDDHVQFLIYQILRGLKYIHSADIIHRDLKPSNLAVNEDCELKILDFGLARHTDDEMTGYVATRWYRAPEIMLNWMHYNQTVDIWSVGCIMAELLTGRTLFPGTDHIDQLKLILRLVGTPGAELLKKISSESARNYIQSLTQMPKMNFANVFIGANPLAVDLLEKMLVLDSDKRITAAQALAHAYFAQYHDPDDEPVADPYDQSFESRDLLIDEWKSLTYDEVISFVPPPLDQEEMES
Chain of Tyrosine-protein kinase ABL1 (Homo sapiens) (P00519 whole entry): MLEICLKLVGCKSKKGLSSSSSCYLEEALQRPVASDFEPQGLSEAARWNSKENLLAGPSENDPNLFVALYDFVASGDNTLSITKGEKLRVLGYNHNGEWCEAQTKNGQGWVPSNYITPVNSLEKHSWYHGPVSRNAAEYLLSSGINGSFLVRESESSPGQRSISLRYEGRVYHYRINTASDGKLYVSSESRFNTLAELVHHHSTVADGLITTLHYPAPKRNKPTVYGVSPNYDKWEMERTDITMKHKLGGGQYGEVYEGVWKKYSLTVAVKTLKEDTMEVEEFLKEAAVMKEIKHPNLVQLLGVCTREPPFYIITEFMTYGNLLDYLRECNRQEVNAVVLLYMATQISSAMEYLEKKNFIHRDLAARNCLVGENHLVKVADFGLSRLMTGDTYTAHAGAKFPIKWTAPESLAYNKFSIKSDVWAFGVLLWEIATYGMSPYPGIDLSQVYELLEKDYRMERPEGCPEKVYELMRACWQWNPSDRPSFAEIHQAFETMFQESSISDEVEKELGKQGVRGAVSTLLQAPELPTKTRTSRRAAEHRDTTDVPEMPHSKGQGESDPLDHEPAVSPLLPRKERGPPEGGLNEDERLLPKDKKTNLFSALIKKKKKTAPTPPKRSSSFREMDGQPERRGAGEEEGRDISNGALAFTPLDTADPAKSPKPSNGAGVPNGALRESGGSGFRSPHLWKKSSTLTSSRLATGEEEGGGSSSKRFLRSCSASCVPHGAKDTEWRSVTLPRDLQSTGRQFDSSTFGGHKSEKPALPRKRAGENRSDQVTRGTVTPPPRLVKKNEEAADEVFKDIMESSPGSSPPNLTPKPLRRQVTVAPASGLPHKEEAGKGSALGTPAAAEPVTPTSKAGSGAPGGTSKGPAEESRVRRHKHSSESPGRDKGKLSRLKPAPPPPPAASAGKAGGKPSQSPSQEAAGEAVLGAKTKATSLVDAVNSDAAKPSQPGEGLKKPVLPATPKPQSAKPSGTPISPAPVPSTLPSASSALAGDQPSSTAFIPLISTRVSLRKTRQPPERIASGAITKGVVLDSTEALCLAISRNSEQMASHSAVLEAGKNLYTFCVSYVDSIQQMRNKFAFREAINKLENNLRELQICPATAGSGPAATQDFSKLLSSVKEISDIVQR
Chain of Dual specificity mitogen-activated protein kinase kinase 1 (Q02750 whole entry): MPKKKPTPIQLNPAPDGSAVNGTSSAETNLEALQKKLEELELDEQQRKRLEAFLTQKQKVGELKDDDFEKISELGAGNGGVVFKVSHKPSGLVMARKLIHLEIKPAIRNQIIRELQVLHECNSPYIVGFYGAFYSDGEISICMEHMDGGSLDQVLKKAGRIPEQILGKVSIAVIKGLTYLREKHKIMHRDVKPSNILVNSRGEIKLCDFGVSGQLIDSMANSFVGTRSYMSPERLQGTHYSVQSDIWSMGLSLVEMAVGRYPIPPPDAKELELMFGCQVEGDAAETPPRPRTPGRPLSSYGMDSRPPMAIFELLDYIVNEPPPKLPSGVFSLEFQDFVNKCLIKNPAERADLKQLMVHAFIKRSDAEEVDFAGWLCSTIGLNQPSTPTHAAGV
Chain of Serine/threonine-protein kinase PLK3 (Homo sapiens) (Q9H4B4 whole entry, looked up): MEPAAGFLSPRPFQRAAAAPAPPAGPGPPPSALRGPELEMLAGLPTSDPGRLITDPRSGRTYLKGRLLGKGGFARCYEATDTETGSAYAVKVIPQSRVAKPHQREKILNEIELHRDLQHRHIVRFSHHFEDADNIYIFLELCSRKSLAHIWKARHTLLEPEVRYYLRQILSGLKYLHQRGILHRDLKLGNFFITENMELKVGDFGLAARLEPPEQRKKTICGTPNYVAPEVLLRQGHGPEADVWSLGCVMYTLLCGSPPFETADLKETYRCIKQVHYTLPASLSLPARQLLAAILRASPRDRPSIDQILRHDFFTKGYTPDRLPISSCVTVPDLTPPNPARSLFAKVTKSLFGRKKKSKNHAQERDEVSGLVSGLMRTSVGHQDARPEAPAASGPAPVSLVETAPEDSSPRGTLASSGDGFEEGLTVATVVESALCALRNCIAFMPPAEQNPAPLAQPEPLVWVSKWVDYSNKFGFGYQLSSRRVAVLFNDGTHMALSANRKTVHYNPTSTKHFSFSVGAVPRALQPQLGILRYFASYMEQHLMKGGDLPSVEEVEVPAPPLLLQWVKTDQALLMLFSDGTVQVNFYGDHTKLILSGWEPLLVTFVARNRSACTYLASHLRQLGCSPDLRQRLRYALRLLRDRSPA
Chain of 3-phosphoinositide-dependent protein kinase 1 (Homo sapiens) (O15530 whole entry, looked up): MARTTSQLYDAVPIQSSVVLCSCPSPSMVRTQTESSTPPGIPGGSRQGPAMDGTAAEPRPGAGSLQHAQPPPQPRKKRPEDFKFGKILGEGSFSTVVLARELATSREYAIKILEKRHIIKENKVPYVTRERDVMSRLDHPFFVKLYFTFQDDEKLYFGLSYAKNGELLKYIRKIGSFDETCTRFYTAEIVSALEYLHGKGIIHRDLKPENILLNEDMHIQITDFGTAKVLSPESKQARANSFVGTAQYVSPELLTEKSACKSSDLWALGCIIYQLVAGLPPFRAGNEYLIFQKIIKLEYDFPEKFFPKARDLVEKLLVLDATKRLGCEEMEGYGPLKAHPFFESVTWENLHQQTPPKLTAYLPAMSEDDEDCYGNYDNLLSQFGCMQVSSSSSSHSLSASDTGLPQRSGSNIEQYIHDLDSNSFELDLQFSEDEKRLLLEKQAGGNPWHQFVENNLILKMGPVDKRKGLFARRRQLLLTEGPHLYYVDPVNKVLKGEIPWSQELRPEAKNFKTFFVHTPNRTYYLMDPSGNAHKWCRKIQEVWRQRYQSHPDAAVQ
Chain of Angiopoietin-1 receptor (Homo sapiens) (Q02763 whole entry): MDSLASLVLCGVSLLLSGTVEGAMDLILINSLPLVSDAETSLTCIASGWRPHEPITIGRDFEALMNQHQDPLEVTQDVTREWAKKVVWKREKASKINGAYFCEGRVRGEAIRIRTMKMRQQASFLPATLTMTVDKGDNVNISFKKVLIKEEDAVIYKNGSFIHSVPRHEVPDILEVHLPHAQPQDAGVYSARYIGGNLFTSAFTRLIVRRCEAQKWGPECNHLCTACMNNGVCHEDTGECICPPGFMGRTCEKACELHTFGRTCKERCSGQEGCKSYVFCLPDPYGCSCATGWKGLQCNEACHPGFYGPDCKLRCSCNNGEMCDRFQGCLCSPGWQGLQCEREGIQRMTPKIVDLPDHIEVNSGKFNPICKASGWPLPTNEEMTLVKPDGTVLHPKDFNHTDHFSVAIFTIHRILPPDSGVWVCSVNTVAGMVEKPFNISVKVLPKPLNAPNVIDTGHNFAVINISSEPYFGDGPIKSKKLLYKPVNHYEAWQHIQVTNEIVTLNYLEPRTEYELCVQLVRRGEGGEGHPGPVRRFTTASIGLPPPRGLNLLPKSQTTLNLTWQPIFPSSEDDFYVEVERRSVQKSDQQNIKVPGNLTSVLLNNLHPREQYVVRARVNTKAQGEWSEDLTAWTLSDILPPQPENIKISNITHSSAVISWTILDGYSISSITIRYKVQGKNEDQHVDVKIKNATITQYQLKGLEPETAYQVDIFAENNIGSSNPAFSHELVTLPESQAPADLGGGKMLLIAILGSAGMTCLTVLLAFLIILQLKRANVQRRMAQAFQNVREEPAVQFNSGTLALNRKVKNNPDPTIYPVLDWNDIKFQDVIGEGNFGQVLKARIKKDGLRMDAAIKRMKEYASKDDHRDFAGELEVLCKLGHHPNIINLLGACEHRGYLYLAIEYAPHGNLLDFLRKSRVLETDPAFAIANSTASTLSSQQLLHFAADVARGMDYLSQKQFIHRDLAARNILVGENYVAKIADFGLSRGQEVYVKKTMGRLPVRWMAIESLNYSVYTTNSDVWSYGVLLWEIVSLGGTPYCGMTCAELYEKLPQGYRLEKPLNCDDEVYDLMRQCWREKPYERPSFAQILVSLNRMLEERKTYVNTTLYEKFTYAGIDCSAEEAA

SMILES: Cn1c(Nc2ccc(I)cc2F)c(C(=O)NOC[C@H](O)CO)c2c1C(=O)CC2
- EC50 [1]: 13 nM
- half-life [2]: 0.9 h
- EC50 [3]: 9 nM
- IC50 [4]: 54 nM
- half-life [5]: 1.43 h

SMILES: Cn1c(Nc2ccc(Br)cc2F)c(C(=O)NOC[C@@H](O)CO)c2c1C(=O)CCC2
- EC50 [1]: 76 nM
- half-life [2]: 1.17 h
- EC50 [3]: 53 nM
- IC50 [4]: 76 nM
- half-life [5]: 1.27 h

SMILES: O=C(NOCCO)c1c(Nc2ccc(I)cc2F)c(F)c(=O)n2c1CCC2
- inhibition [6]: inactive
- inhibition [7]: inactive
- inhibition [8]: inactive
- EC50 [1]: 3 nM
- Vd [9]: 0.745 L/kg
- inhibition [10]: inactive
- inhibition [11]: inactive
- inhibition [12]: inactive
- inhibition [13]: inactive
- inhibition [14]: inactive
- AUC/dose [15]: 262 ng·h/mL/mg/kg
- inhibition [16]: inactive
- half-life [2]: 2.07 h
- inhibition [17]: inactive
- inhibition [18]: inactive
- inhibition (INH) [19]: Not Active
- inhibition [20]: inactive
- EC50 [3]: 1 nM
- clearance [21]: 12.9 mL/min/kg
- IC50 [4]: 25 nM
- inhibition [22]: inactive
- half-life [5]: > 3.33 h
- inhibition [23]: inactive
- inhibition [24]: inactive
- inhibition [25]: inactive
- inhibition [26]: inactive
- inhibition [27]: inactive
- bioavailability [28]: 21%

SMILES: Cn1c(Nc2ccc(I)cc2F)c(C(=O)NOC[C@@H](O)CO)c2c1C(=O)CC2
- EC50 [1]: 7 nM
- half-life [2]: 0.9 h
- EC50 [3]: 5 nM
- IC50 [4]: 11 nM
- half-life [5]: 1.07 h

SMILES: O=C(NOCCO)c1c(Nc2ccc(I)cc2F)c(Cl)c(=O)n2c1CCC2
- EC50 [1]: 5 nM
- half-life [2]: 0.9 h
- EC50 [3]: 3 nM
- IC50 [4]: 109 nM
- half-life [5]: 0.783 h

SMILES: C#Cc1ccc(Nc2c(C(=O)NOCCO)c3c(n2C)C(=O)CC3)c(F)c1
- inhibition [6]: inactive
- inhibition [7]: inactive
- inhibition [8]: inactive
- EC50 [1]: 34 nM
- Vd [9]: 1.19 L/kg
- inhibition [10]: inactive
- inhibition [11]: inactive
- inhibition [12]: inactive
- inhibition [13]: inactive
- inhibition [14]: inactive
- AUC/dose [15]: 512 ng·h/mL/mg/kg
- inhibition [16]: inactive
- half-life [2]: 2.5 h
- inhibition [17]: inactive
- inhibition [18]: inactive
- inhibition (INH) [19]: Not Active
- inhibition [20]: inactive
- EC50 [3]: 17 nM
- clearance [21]: 15.6 mL/min/kg
- IC50 [4]: 36 nM
- inhibition [22]: inactive
- half-life [5]: 1.78 h
- inhibition [23]: inactive
- inhibition [24]: inactive
- inhibition [25]: inactive
- inhibition [26]: inactive
- inhibition [27]: inactive
- bioavailability [28]: 51%

SMILES: O=C(NOC[C@@H](O)CO)c1c(Nc2ccc(I)cc2F)c(F)c(=O)n2c1CCC2
- inhibition [6]: inactive
- inhibition [7]: inactive
- inhibition [8]: inactive
- EC50 [1]: 139 nM
- inhibition [10]: inactive
- inhibition [11]: inactive
- inhibition [12]: inactive
- inhibition [13]: inactive
- inhibition [14]: inactive
- inhibition [16]: inactive
- half-life [2]: > 3.33 h
- inhibition [17]: inactive
- inhibition [18]: inactive
- inhibition (INH) [19]: Not Active
- inhibition [20]: inactive
- EC50 [3]: 44 nM
- IC50 [4]: 94 nM
- inhibition [22]: inactive
- half-life [5]: > 3.33 h
- inhibition [23]: inactive
- inhibition [24]: inactive
- inhibition [25]: inactive
- inhibition [26]: inactive
- inhibition [27]: inactive

SMILES: Cn1c(Nc2ccc(I)cc2F)c(C(=O)NOCCO)c2c1C(=O)CCC2
- EC50 [1]: 1 nM
- half-life [2]: 0.0917 h
- EC50 [3]: 1 nM
- IC50 [4]: 14 nM
- half-life [5]: 0.0617 h

SMILES: Cn1c(Nc2ccc(I)cc2F)c(C(=O)NOC[C@@H](O)CO)c2c1C(=O)CCC2
- EC50 [1]: 2.5 nM
- half-life [2]: 0.6 h
- EC50 [3]: 2 nM
- IC50 [4]: 17 nM
- half-life [5]: 0.367 h

SMILES: O=C(NOC[C@H](O)CO)c1c(Nc2ccc(I)cc2F)c(F)c(=O)n2c1CCC2
- EC50 [1]: 69 nM
- half-life [2]: > 3.33 h
- EC50 [3]: 27 nM
- IC50 [4]: 39 nM
- half-life [5]: > 3.33 h

SMILES: C#Cc1ccc(Nc2c(C(=O)NOCCO)c3n(c(=O)c2F)CCC3)c(F)c1
- EC50 [1]: 33 nM
- half-life [2]: > 3.33 h
- EC50 [3]: 12 nM
- IC50 [4]: 69 nM
- half-life [5]: 2.13 h

SMILES: Cn1c(Nc2ccc(Br)cc2F)c(C(=O)NOCCO)c2c1C(=O)CCC2
- EC50 [1]: 31 nM
- half-life [2]: 0.333 h
- EC50 [3]: 34 nM
- IC50 [4]: 18 nM
- half-life [5]: 0.417 h

The next lines start with results.

- half-life [2]: 1.42 h
- IC50 [4]: 52 nM
- half-life [5]: 1.57 h
SMILES: Cn1c(Nc2ccc(Br)cc2F)c(C(=O)NOC[C@H](O)CO)c2c1C(=O)CCC2
- EC50 [1]: 72 nM
- EC50 [3]: 58 nM

- half-life [2]: > 3.33 h
- IC50 [4]: 41 nM
- half-life [5]: > 3.33 h
SMILES: C#Cc1ccc(Nc2c(C(=O)NOC[C@H](O)CO)c3c(n2C)C(=O)CCC3)c(F)c1
- EC50 [1]: 72 nM
- EC50 [3]: 62 nM

- half-life [2]: 0.233 h
- half-life [5]: 0.167 h
SMILES: Cn1c(Nc2ccc(I)cc2F)c(C(=O)NOCCO)c2c1C(=O)CC2
- EC50 [1]: 4 nM
- EC50 [3]: 2 nM

- half-life [2]: 0.683 h
- IC50 [4]: 57 nM
- half-life [5]: 1.85 h
SMILES: O=C(NOCCO)c1c(Nc2ccc(I)cc2F)c(F)c(=O)n2c1CCCC2
- EC50 [1]: 30 nM
- EC50 [3]: 12 nM

- AUC/dose [15]: 144 ng·h/mL/mg/kg
SMILES: CC(=O)c1cc(C(=O)NOCCO)c(Nc2ccc(I)cc2F)n1C
- EC50 [1]: 14 nM
- EC50 [3]: 12 nM

- half-life [2]: 1.03 h
- half-life [5]: 2.23 h
SMILES: O=C(NOCCO)c1c(Nc2ccc(I)cc2F)cc(=O)n2c1CCC2
- EC50 [1]: 13 nM
- EC50 [3]: 5 nM

From ChEMBL document CHEMBL2010712, “Design and synthesis of orally available MEK inhibitors with potent in vivo antitumor efficacy” (Bioorg Med Chem Lett, 2012)
